Assays:
[1] = Bioavailability test (plasma pharmacokinetics after intragastric administration); parameters: species or system Male SD rats; settings: rat, in vivo, 200 mg/kg
Method: Male SD rats (weighing 200-300 g) kept under good feeding conditions were used for the experiment. A total of 12 rats were used, evenly divided into 2 groups of 6 rats each. Commercially available curcumin crystals and the cocrystal obtained in Example 3 were uniformly dispersed in soybean oil and administered intragastrically as a suspension. The dosage was 200 mg/kg based on curcumin content. Blood samples (1 mL per time point) were collected from the orbital venous plexus at 20 minutes, 40 minutes, 1 hour, 1.5 hours, 2.5 hours, 4 hours, 6 hours, and 8 hours after administration. Plasma was separated by centrifugation within 0.5 hours of blood collection at 10,000 rpm for 5 minutes. 100 µL of plasma was precisely transferred, added with 50 µL of enzyme buffer solution, incubated at 37°C for 60 min, then added with 0.45 mL of methanol (containing 0.2% acetic acid), vortexed for 10 min, centrifuged at 14000 rpm for 3 min, and the supernatant was collected for HPLC analysis. Table 4. Pharmacokinetic parameters for commercially available curcumin crystals and curcumin-L-carnitine cocrystal.

[2] = Powder dissolution rate test; assay type: physicochemical; settings: 50 rpm, samples equivalent to 10 mg of curcumin
Method: Powder dissolution experiments were conducted in pH 2.0 and pH 4.5 buffer solutions (containing 0.5% Tween 80) at a temperature of 37°C and a rotation speed of 50 rpm. The commercially available curcumin crystals and the powder of the curcumin-L-carnitine cocrystal from Example 3 were sieved through a 100-mesh screen to eliminate the effect of particle size on dissolution. Samples equivalent to 10 mg of curcumin were placed into the sample vessels of the dissolution apparatus, stirred, and samples were taken at 3, 5, 10, 15, 20, 30, 45, 60, 90, and 120 minutes. Concentrations were determined using HPLC. In the pH 2.0 buffer solution, the dissolution of the cocrystal at 3 minutes was about 7 times that of curcumin itself. In the pH 4.5 buffer solution, the dissolution of the cocrystal at 3 minutes was about 8 times that of curcumin itself.

Substance: cocrystal of curcumin and L-carnitine [Curcumin-L-carnitine cocrystal]
- maximum plasma concentration of curcumin relative to commercially available curcumin crystals [1]: 10.7 times
- Cmax ([1]; po): 727.8 ng/mL
- Tmax ([1]; po): 20 min
- AUC0-8h ([1]; po, 8 h): 692.5 ng·h/mL
- dissolution of the cocrystal at 3 minutes relative to curcumin itself ([2]; pH 2.0 buffer solution containing 0.5% Tween 80, 37°C): about 7 times
- dissolution of the cocrystal at 3 minutes relative to curcumin itself ([2]; pH 4.5 buffer solution containing 0.5% Tween 80, 37°C): about 8 times

— patent EP4810476A1, “COCRYSTAL OF CURCUMIN AND L-CARNITINE, AND PREPARATION METHOD THEREFOR AND USE THEREOF” (Cocrystal Health Industry (Zhejiang) Co., Ltd., priority 2023, dated 2025)
